Data published in US8623859B2, “Bradykinin B1 antagonists” (Evotec AG, priority 2008, dated 2014).
Where a name gives a salt, the structure may show the parent alone.

Target: T1, human B1 (Homo sapiens, UniProt P46663)
T1 construct: host or cells: CHO-K1
T1 sequence (P46663 1-353): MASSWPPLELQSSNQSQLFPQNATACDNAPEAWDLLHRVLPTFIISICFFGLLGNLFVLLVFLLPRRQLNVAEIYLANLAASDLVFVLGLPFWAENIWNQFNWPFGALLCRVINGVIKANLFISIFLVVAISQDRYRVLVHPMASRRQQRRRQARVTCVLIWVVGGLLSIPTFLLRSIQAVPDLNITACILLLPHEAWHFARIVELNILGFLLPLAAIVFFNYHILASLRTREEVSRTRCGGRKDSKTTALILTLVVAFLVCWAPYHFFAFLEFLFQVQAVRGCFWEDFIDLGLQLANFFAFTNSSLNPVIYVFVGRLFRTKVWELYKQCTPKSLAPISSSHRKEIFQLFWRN
Assay: Calcium flux assay for Bradykinin B1 antagonist, CHO-K1 cell line expressing human B1
Format: cell-based
Conditions: CHO-K1 cells expressing human B1, agonist Lys-(Des-Arg)-Bradykinin, read-out: Potency (IC50 value against human B1)
Method: Calcium Flux Assay for Bradykinin B1 Antagonist
The potency to inhibit the Bradykinin B1 receptors was determined for the compounds of this invention in a cell-based fluorescent calcium-mobilization assay. The assay measures the ability of test compounds to inhibit Bradykinin B1 receptor agonist-induced increase of intracellular free Ca^2+ in cell lines expressing B1.
The change of the intracellular Ca^2+ concentration is monitored with a specifically designed fluorescent plate reader (FlexStation, Molecular Devices).
CHO-K1 cell line expressing human B1 was purchased from Euroscreen (Gosselies, Belgium, with reference name hBl-D1). CHO-K1 cell lines expressing rat B1 or mouse B1 were established in the following way: the full-length receptor-coding cDNA clones were obtained by PCR performed on rat or mouse brain cDNAs. The respective cDNAs were cloned into an expression vector under the control of a CMV promotor. The resultant plasmids were introduced into CHO-K1 cells with liposome technology (FuGENE; Roche Diagnostics, Basel), according to the standard protocols described by the manufacturer. Cell lines expressing a Bradykinin receptor were selected in the culture medium containing 400 μg/ml G418 (Sigma). From selected cell populations, monoclonal cell lines were isolated by single cell cloning. The expression of Bradykinin receptors was confirmed by immunofluorescence staining of the cells, as well as by calcium flux assay.
Human B1-expressing cells were grown in Nutrient Mixture Ham's F12 (Sigma) containing 10% Foetal bovine serum (Sigma) and 400 μg/ml G418 (Sigma), 5 μg/ml puromycim (Sigma); Rat B1 and mouse B1-expressing cells were grown in DMEM/F12 medium (Sigma) containing 10% Foetal bovine serum (Sigma) and 400 μg/ml G418 (Sigma).
For the calcium flux assay, 80% confluent cells were detached from the culture vessels with Versene (Gibco; for human B1 cell-line) or with 1× trypsin-EDTA solution (Sigma; for rodent B1 cell-line), and seeded into 384-well plates (Cell binding Surface; Corning, N.Y.; #3683) at a density of 15,000 cells per well for human B1 or at a density of 20,000 cells per well for rodent B1. Cells were seeded in a volume of 50 μl in medium without antibiotics and incubated overnight in a humidified atmosphere with 5% CO2 at 37° C. The following day, the medium was replaced with 20 μl of 5 μM Fluo-4AM dye (Molecular Probes) in assay buffer (2.5 mM probenicid, 1 mg/ml pluronic acid, 0.1% BSA, 135 mM NaCl, 5 mM KCl, 1.8 mM CaCl, 1 mM MgCl2, 10 mM HEPES, 5.6 mM glucose, 0.05% gelatine, pH 7.4). The calcium indicator loaded cells were incubated at 37° C. for 2 hrs. Extracellular dye was then removed and each well was filled with 45 μl of assay buffer. Cell plates were kept in dark until used. Test compounds were assayed at 8 concentrations in triplicate. Serial 10-fold dilutions in 100% DMSO were made at a 100-times higher concentration than the final concentration, and then diluted 1:10 in assay buffer. 5 μl of each diluted compound was added to the well of cell plates (yielding final concentration with 1% DMSO), and incubated for 30 min at 25° C. before the addition of B1 agonist on the FlexStation.
The addition of agonist 20 μl per well to the assay plate was carried out on the FlexStation while continuously monitoring Ca^2+-dependent fluorescence at 538 nm. The integrated values, normalized with the background fluorescence, were plotted against the logarithm of the antagonist concentrations.

SMILES	IC50
COc1cc(C)c(S(=O)(=O)N(C)Cc2nnc(C(=O)N3CCN(CC4CCN(C(=O)OC(C)(C)C)CC4)CC3)o2)c(C)c1 [Ex 263, tert-Butyl 4-[(4-{[5-({[(4-methoxy-2,6-dimethylphenyl)sulfonyl](methyl)amino}methyl)-1,3,4-oxadiazol-2-yl]carbonyl}piperazin-1-yl)methyl]piperidine-1-carboxylate]	100 to 1000 nM
COc1cc(C)c(S(=O)(=O)N(C)Cc2cc(C(=O)N3CCN(CCN4CCCC4)CC3)co2)c(C)c1 [Ex 39, 4-methoxy-N,2,6-trimethyl-N-[(4-{[4-(2-pyrrolidin-1-ylethyl)piperazin-1-yl]carbonyl}furan-2-yl)methyl]benzenesulfonamide]	100 to 1000 nM
COc1cc(C)c(S(=O)(=O)N(C)Cc2cc(C(=O)N(C)Cc3nc(CN4CCCC4)cs3)co2)c(C)c1 [Ex 138, 5-({[(4-Methoxy-2,6-dimethylphenyl)sulfonyl](methyl)amino}methyl)-N-methyl-N-{[4-(pyrrolidin-1-ylmethyl)-1,3-thiazol-2-yl]methyl}furan-3-carboxamide]	< 10 nM
COc1cc(C)c(S(=O)(=O)N(C)Cc2cc(C(=O)NCc3ccc(CN4CCCCCC4)cc3)co2)c(C)c1 [Ex 101, N-[4-(Azepan-1-ylmethyl)benzyl]-5-({[(4-methoxy-2,6-dimethylphenyl)sulfonyl](methyl)amino}methyl)furan-3-carboxamide trifluoroacetate]	100 to 1000 nM
[2H]C([2H])([2H])N(Cc1nnc(C(=O)N2CCN(CC3CCN(C)CC3)CC2)o1)S(=O)(=O)c1c(C)cc(OC)cc1C [Ex 291, 4-Methoxy-2,6-dimethyl-N-(^2H3)methyl-N-{[5-({4-[(1-methylpiperidin-4-yl)methyl]piperazin-1-yl}carbonyl)-1,3,4-oxadiazol-2-yl]methyl}benzenesulfonamide trifluoroacetate]	100 to 1000 nM
COc1cc(C)c(S(=O)(=O)N(C)Cc2nnc(C(=O)N(C)CCc3ccc(C4=NCCN4)cc3)s2)c(C)c1 [Ex 328, N-{2-[4-(4,5-Dihydro-1H-imidazol-2-yl)phenyl]ethyl}-5-({[(4-methoxy-2,6-dimethylphenyl)sulfonyl](methyl)amino}methyl)-N-methyl-1,3,4-thiadiazole-2-carboxamide]	< 10 nM
COc1cc(C)c(S(=O)(=O)N(C)Cc2cc(C(=O)N3CCN(Cc4ccncc4)CC3)co2)c(C)c1 [Ex 34, 4-methoxy-N,2,6-trimethyl-N-[(4-{[4-(pyridin-4-ylmethyl)piperazin-1-yl]carbonyl}furan-2-yl)methyl]benzenesulfonamide]	100 to 1000 nM
Cc1cc(O)cc(C)c1S(=O)(=O)N(C)Cc1cc(C(=O)N(C)CCc2ccc(C3=NCCN3)cc2)co1 [Ex 87, N-{2-[4-(4,5-Dihydro-1H-imidazol-2-yl)phenyl]ethyl}-5-({[(4-hydroxy-2,6-dimethylphenyl)sulfonyl](methyl)amino}methyl)-N-methylfuran-3-carboxamide, trifluoroacetate]	10 to 100 nM
COc1cc(C)c(S(=O)(=O)N(C)Cc2cc(C(=O)NCc3ccc(CN4CCCC4)c(F)c3)co2)c(C)c1 [Ex 152, N-[3-Fluoro-4-(pyrrolidin-1-ylmethyl)benzyl]-5-({[(4-methoxy-2,6-dimethylphenyl)sulfonyl](methyl)amino}methyl)furan-3-carboxamide trifluoroacetate]	100 to 1000 nM
COc1cc(C)c(S(=O)(=O)N(Cc2nc(C(=O)N3CCN(CCCCN(C)C)CC3)co2)C2CC2)c(C)c1 [Ex 204, N-Cyclopropyl-N-{[4-({4-[4-(dimethylamino)butyl]piperazin-1-yl}carbonyl)-1,3-oxazol-2-yl]methyl}-4-methoxy-2,6-dimethylbenzenesulfonamide trifluoroacetate]	< 10 nM
COc1cc(C)c(S(=O)(=O)N(C)Cc2cc(C(=O)N(C)Cc3ccc(-n4ccnc4)cc3)co2)c(C)c1 [Ex 2, N-[4-(1H-imidazol-1-yl)benzyl]-5-({[(4-methoxy-2,6-dimethylphenyl)sulfonyl](methyl)amino}methyl)-N-methylfuran-3-carboxamide]	100 to 1000 nM
